These results are taken from article PMC9747113 (Clinical and Translational Science, 2022).

Structures are written as SMILES. Entries after “also recorded” stand apart in the source; their conditions may differ. A value given as a limit tells only on which side of the number the result lay.

The subject of data set [1] is BTK. As to conditions: 2 h after the first dose; cited from earlier work.
The nature of data set [2]: Population PK model of evobrutinib plasma concentration-time data.
Data set [3] deals with BTK. As to conditions: cited from earlier work.
The nature of data set [4]: Tolerability in fed and fasted states. Type of data set: in vivo. As to conditions: fed vs fasted.
The mark [5] stands for this setting: between-participant variability, variance estimate.
Where [6] appears, read: final population PK model, oral tablet.

`C=CC(=O)N1CCC(CNc2ncnc(N)c2-c2ccc(Oc3ccccc3)cc2)CC1` [evobrutinib, Evobrutinib]: in data set [1], the “BTKO in peripheral blood” value is listed as “high degree of BTKO”. In data set [2] (setting [5]), the “BPV ALAG, Estimate (RSE %)” value is listed as 0.156 (40.2); the “BPV CL/F, Estimate (RSE %)” value is recorded as 0.0958 (23.0); the “BPV D 1 Fasted, Estimate (RSE %)” value is listed as 1.39 (47.2); the “BPV D 1 Fed, Estimate (RSE %)” value is given as 1.39 (47.2). In data set [2] (setting [5]), the “BPV Q/F, Estimate (RSE %)” value is 1.17 (24.1); the “BPV V2/F, Estimate (RSE %)” value is 0.627 (31.9); the “BPV V3/F, Estimate (RSE %)” value was 1.86 (22.7). Besides, in data set [2] (covariate test), the “Effect of ethnicity (Japanese vs non-Japanese) on PK parameters” value is “no difference; also recorded: not a significant covariate”. Also, in data set [2] (setting [6]), the “ALAG (absorption lag time)” value was found to be 0.235 h, the “CL/F (apparent clearance)” value was 273 L/h, the “K a (first-order absorption rate constant)” value was 0.784 h⁻¹ and the “V3/F (apparent peripheral volume of distribution)” value is listed as 446 L. The compound also returned a Vd/F in data set [2] (human, in vivo, po) of 61.1 L. The “Increase of bioavailability with food compared with fasted” value in data set [2] (low-fat meal vs fasted) came to 49%. In addition, in data set [3] (after 14 days of 25 mg q.d. while fasted), the “BTKO, median at trough” value was 88%. Moreover, the “BTK occupancy at 96 h postdose” value in data set [3] (single doses ≥100 mg while fasted) is more than 50%. Moreover, the “maximum BTK occupancy” value in data set [3] (within 4 h of single doses ≥200 mg while fasted) was more than 90%. Also, the “Tolerability in fed and fasted states” value in data set [4] is “equivalent”.

One may read the Vd/F as the volume of distribution divided by bioavailability.
